Test results: patent US20230055237A1, “COMPOUNDS AND METHODS FOR THE TREATMENT OF CYSTIC FIBROSIS” (Flatley Discovery Lab, LLC, priority 2019, published 2023)

Target: T1, CFTR (Homo sapiens, UniProt P13569, DEL508-508)
T1 construct: Primary CF airway epithelial cells were obtained from the UNC Cystic Fibrosis Tissue Procurement and Cell Culture Core; host or cells: primary CF airway epithelial cells, differentiated at the air-liquid interface
Experiment: Equivalent current assay in primary CF airway epithelial cells (NAUC, combination with 1st site corrector FDL169 or VX-809)
Format: cell-based
Settings: 37° C., 24 h
Protocol: Primary CF airway epithelial cells were obtained from the UNC Cystic Fibrosis Tissue Procurement and Cell Culture Core. The cells are grown at 37° C. in a Heracell 150i incubator using growth media (BEGM, Fischer). […] Two days before the Ussing assay the mucus on the apical surface of the cells was aspirated after incubating with 200 μL of differentiation media for at least thirty (30) minutes. One day before the Ussing assay test compounds were added to the basolateral surface of the cells at various test concentrations dissolved in DMSO. Duplicate wells were prepared giving a n=3 or n=4 protocol.
Cells were treated for 24 hours with various combinations and concentrations of the test articles, reference standard (3 μM VX809 or 3 μM FDL169, positive control). Compounds stock solutions were prepared in DMSO and diluted 1/1000 into ALI media to their final assay concentration. Cells were treated with combination solutions (2 mL of each dilution) and incubated at 37° C. for 24 h.
For the equivalent current assay, cells on four Transwell (24-well) plates were treated. Each Transwell plate was filled with 200 μl of HBS on the apical surface and 2 ml on the basolateral surface. Plates were placed horizontally in a heated mount at 37° C., and equilibrated for several minutes. Resting current was measured for 15 min and then blocked by the apical addition of 5 μM benzamil. After 20 min, 10 μM forskolin and 1 μM VX770 were added to both the apical and basolateral side to stimulate CFTR. An increase in chloride current is seen as an upward deflection of the trace.
The raw data, current vs. time for the Ussing chamber (sampling interval: 10 s) and voltage vs. time and resistance vs. time for the equivalent current assay (sampling interval: 5 minutes) were transferred to Excel (Microsoft Office Professional, version 14.0.7106.5003) for analysis. […] This average is equivalent to the sum of the average forskolin activated and the average VX770-potentiated currents. The average current measured in vehicle (0.1% DMSO) treated cells, Iv, was subtracted from the current for the test article, ITA, or from the corrector reference standard VX809 (3 uM ISTD). For replicate measurements, the average vehicle subtracted response for the test article, was normalized to the average vehicle subtracted inhibitor response of the reference corrector VX809 (3 μM).
A second endpoint, for the equivalent current assay, evaluated was NAUC, the normalized area under the curve (AUC) measuring the response after addition of forskolin and VX770 to the time point right before the addition of the CFTR inhibitor. The AUC is effectively the average response multiplied by the duration of the response.
NAUCTA=[AUCTA−AUCV,ave]/[AUCVx809r,ave−AUCV,ave] (Equation 2).
Experiments were run with a minimum of n=4 replicates per concentration. Since the distribution for the ratio of two normal distributions is a Cauchy distribution, the median value must be used for the average and the average deviation must be used for the error of all normalized data.
E=Emin+(Emax−Emin)/(1+10^((LogEC5OS)*nH)) (Equation 3)

[1] = test compound 1 μM in combination with 1st site corrector VX-809 (3 μM)
[2] = test compound 3 μM in combination with 1st site corrector VX-809 (3 μM)
[3] = test compound 10 μM in combination with 1st site corrector VX-809 (3 μM)
[4] = test compound 1 μM in combination with 1st site corrector FDL169 (3 μM)
[5] = test compound 3 μM in combination with 1st site corrector FDL169 (3 μM)

T1 sequence (P13569 with tags, fused parts or gaps DEL508-508): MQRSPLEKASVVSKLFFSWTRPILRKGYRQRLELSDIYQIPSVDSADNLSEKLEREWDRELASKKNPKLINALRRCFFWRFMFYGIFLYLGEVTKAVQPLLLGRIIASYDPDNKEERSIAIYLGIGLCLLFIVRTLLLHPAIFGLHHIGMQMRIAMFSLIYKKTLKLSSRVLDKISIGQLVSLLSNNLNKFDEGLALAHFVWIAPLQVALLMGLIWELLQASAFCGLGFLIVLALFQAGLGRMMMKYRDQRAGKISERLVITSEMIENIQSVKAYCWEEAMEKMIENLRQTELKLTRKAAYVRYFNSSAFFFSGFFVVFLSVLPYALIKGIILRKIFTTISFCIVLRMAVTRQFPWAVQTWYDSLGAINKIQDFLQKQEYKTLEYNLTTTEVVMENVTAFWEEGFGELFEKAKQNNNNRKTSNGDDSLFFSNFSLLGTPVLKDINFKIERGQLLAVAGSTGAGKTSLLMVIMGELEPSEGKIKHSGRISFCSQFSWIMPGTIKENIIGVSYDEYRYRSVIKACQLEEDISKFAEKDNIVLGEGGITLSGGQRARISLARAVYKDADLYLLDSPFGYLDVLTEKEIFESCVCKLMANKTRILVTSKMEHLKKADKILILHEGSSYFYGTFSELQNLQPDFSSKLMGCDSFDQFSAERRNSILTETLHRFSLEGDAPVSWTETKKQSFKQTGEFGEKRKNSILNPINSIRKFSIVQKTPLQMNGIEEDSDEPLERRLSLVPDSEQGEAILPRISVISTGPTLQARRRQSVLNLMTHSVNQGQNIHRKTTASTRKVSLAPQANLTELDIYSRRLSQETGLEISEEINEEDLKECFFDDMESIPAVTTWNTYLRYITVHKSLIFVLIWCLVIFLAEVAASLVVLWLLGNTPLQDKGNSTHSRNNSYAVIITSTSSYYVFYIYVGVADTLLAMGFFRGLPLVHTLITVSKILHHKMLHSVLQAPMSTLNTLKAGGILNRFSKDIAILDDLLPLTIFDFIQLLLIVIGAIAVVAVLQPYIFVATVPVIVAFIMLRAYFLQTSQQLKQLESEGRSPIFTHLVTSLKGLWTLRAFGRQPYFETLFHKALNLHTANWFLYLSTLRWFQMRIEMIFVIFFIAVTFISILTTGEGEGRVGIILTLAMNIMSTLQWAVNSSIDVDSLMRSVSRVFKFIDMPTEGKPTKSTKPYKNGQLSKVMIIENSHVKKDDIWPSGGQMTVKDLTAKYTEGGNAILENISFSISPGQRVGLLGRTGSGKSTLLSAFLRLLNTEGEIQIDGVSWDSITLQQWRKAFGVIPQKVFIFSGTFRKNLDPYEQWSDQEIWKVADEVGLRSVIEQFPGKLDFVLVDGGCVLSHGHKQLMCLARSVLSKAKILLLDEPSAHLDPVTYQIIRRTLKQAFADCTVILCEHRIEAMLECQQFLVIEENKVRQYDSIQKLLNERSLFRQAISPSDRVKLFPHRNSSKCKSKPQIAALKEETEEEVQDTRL

Compound	Nauc @ 1 μM [1]	Nauc @ 3 μM [2]	Nauc @ 10 μM [3]	Nauc @ 1 μM [4]	Nauc @ 3 μM [5]	Nauc @ 10 μM (test compound 10 μM in combination with 1st site corrector FDL169 (3 μM))
CN(C(=O)[C@H]1[C@@H](C(=O)NCC(F)(F)F)[C@]2(C(=O)Nc3c(Cl)cc(Cl)cc32)N2CC(F)(F)C[C@@H]12)c1cc(Cl)cc(Cl)c1 (single isomer, unassigned) [Example 232a]	+ (NAUC “+” refers to an observed NAUC <140% of positive control)	+ (NAUC “+” refers to an observed NAUC <140% of positive control)	+ (NAUC “+” refers to an observed NAUC <140% of positive control)			
O=C(Nc1ccc2ccccc2c1)[C@H]1[C@H]2CC(F)(F)CN2[C@]2(C(=O)Nc3c(Cl)cc(Cl)cc32)[C@H]1C(=O)O [Example 115]	+ (NAUC “+” refers to an observed NAUC <140% of positive control)	+ (NAUC “+” refers to an observed NAUC <140% of positive control)	+ (NAUC “+” refers to an observed NAUC <140% of positive control)			
O=C(Nc1cc(Cl)cc(Cl)c1)C1C(C(F)(F)c2ccncc2)NC2(C(=O)Nc3c(Cl)cc(Cl)cc32)C1C(=O)O (stereo not drawn) [Example 66.9a, 5,7-dichloro-4′-((3,5-dichlorophenyl)carbamoyl)-5′-(difluoro(pyridin-4-yl)methyl)-2-oxospiro[indoline-3,2′-pyrrolidine]-3′-carboxylic acid]			+ (NAUC “+” refers to an observed NAUC <140% of positive control)			
O=C(Nc1cc(Cl)cc(Cl)c1)C1C2C[C@@](O)(C(F)(F)F)CN2C2(C(=O)Nc3c(Cl)cc(Cl)cc32)C1C(=O)O (stereo partly drawn) [Example 58]		+ (NAUC “+” refers to an observed NAUC <140% of positive control)	+++ (NAUC “+++” refers to an observed NAUC>170% of positive control)			
CN(C(=O)[C@H]1[C@H]2CC(F)(F)CN2C2(C(=O)Nc3cc(Cl)ccc32)[C@H]1C(=O)O)c1cc(Cl)cc(Cl)c1 (stereo partly drawn) [Example 101]				+ (NAUC “+” refers to an observed NAUC <140% of positive control)	+ (NAUC “+” refers to an observed NAUC <140% of positive control)	
Cn1ncc2cc(NC(=O)[C@H]3[C@H]4CC(F)(F)CN4[C@]4(C(=O)Nc5c(Cl)cc(Cl)cc54)[C@H]3C(=O)O)ccc21 [Example 138]				+ (NAUC “+” refers to an observed NAUC <140% of positive control)	+ (NAUC “+” refers to an observed NAUC <140% of positive control)	
CONC(=O)[C@H]1[C@@H](C(=O)Nc2cc(Cl)cc(Cl)c2)[C@H]2CCCN2C12C(=O)Nc1c(Cl)cc(Cl)cc12 (stereo partly drawn) [Example 233, (1′R,2′S,7a′R)-5,7-dichloro-N1′-(3,5-dichlorophenyl)-N2′-methoxy-2-oxo-1′,2′,5′,6′,7′,7a′-hexahydrospiro[indoline-3,3′-pyrrolizine]-1,2′-dicarboxamide]	++ (NAUC “++” refers to an observed NAUC 170-140% of positive control)	+++ (NAUC “+++” refers to an observed NAUC>170% of positive control)	+++ (NAUC “+++” refers to an observed NAUC>170% of positive control)			
CC(C)CN(C(=O)[C@H]1[C@H]2CC(F)(F)CN2[C@]2(C(=O)Nc3c(Cl)cc(Cl)cc32)[C@H]1C(=O)O)c1cc(Cl)cc(Cl)c1 [Example 151]				+++ (NAUC “+++” refers to an observed NAUC>170% of positive control)	+++ (NAUC “+++” refers to an observed NAUC>170% of positive control)	++ (NAUC “++” refers to an observed NAUC 170-140% of positive control)
Cn1cc(N(CC2CC2)C(=O)[C@H]2[C@H]3CC(F)(F)CN3[C@]3(C(=O)Nc4c(Cl)cc(Cl)cc43)[C@H]2C(=O)O)c(C(F)(F)F)n1 [Example 166]				+ (NAUC “+” refers to an observed NAUC <140% of positive control)	+ (NAUC “+” refers to an observed NAUC <140% of positive control)	
